One assay addresses T1, BRD4 (Homo sapiens, UniProt O60885).
T1 construct: The degradation activity for BRD4 proteins in MV-4-11 cells; host or cells: MV-4-11
The assay is described as follows: Degradation activity for BRD4 proteins in MV-4-11 cells (Western blot, 6 h). The assay is classed as cell-based. As to conditions: for DC50: read-out: DC50 of BRD4 protein degradation. The protocol:
The medium of MV-4-11 (CBP60522, Cobioer) was removed, and PBS was added for rinsing once, followed by digestion with trypsin (Trypsin-EDTA (0.25%)) for 5 min. After the digestion, 10 mL of a complete medium (an IMDM medium containing 10% FBS) was added to neutralize the trypsin. The cells were then pipetted and collected, centrifuged at 1000 rpm for 5 min, and counted. The cell density was adjusted to 500,000 cells/mL. 2 mL of the cell suspension was added to a 12-well plate, and the plate was incubated in a cell incubator overnight.
The compounds of the present disclosure were dissolved in DMSO at a stock concentration of 10 mM. The compound stock solution was subjected to gradient dilution (4-fold dilution), resulting in 8 concentration points. DMSO was used as the negative control group, and the DMSO content was 0.1%. After mixing the compound with the cell suspension thoroughly, the mixture was incubated at 37° C. with 5% CO2 for 6 h.
Six hours after drug treatment, the supernatant was discarded, and the cells were washed with 1000 μL of pre-cooled PBS. 100 μL of RIPA lysis buffer (25 mM Tris-HCl, pH=7.5, 150 mM NaCl, 1% NP-40, 1 mM EDTA, pH=8.0, 1 mM PMSF, 1 mM Na3VO4, and 1× Protease Inhibitor Cocktail-P2714, Sigma) was added and placed on ice for lysis for 10 min. The lysed cell samples were collected and centrifuged at 12000 rpm at 4° C. for 30 min. The concentration of each protein sample was determined using the Pierce BCA kit for protein quantification. An appropriate amount of 5×SDS-PAGE protein loading buffer was added to the collected protein samples, and the mixtures were then heated in a metal bath at 100° C. for 10 min to fully denature the proteins. The protein samples were loaded into the SDS-PAGE gel loading wells and electrophoresed at a constant voltage of 120 V for 60 min. After the electrophoresis, the gel was transferred to a PVDF membrane using a Bio-bad transfer apparatus. After the transfer, the band was cut according to the size of the target protein and blocked with 5% BSA (prepared by dissolving 5 g of BSA in 100 mL of TBST) at room temperature for 1 h. […] The proteins were detected using the SuperSignal West Atto ultra-sensitive ECL luminescent liquid.
The degradation activity for BRD4 proteins in MV-4-11 cells by the compounds of the present disclosure was determined through the above test. The gray values of the target sample bands were read using Image J software, and the protein degradation rate for each sample well was calculated based on the raw data.
[formula] • wherein: • All raw data were processed for data analysis using GraphPad Prism 9. The concentration-response curves were obtained using non-linear four-parameter fitting, and the DC50 for the compound was calculated: […]
Background: Immunoblotting shows a protein as a band on a membrane.

Another assay deals with MV-4-11 cells. The assay is described as follows: Antiproliferative activity for MV-4-11 cells (CellTiter-Glo, 3 days). The assay is classed as cell-based. As to conditions: Homo sapiens, MV4-11, 72 h, read-out: IC50 (antiproliferative activity for MV-4-11 cells). On the procedure: The medium of the target cells MV-4-11 (CBP60522, Cobioer) was removed, and PBS was added for rinsing once, followed by digestion with trypsin (Trypsin-EDTA (0.25%)) for 5 min. After the digestion, 10 mL of a complete medium (IMDM+10% FBS) was added to neutralize the trypsin. The cells were then pipetted and collected, centrifuged at 1000 rpm for 5 min, and counted. The cell density was adjusted to 30,000 cells/mL. 90 μL of the cell suspension was added to a 96-well low-adsorption plate. 200 μL of PBS was added to the edge wells of the 96-well plate. The plate was centrifuged at 1000 rpm for 5 min to form cell spheroids, which were then incubated in a cell incubator overnight. […]
The cells were removed from the incubator and allowed to return to room temperature within 30 min. 50 μL of the CellTiter-Glo® Cell Viability Assay reagent was added, and the plate was shaken to mix thoroughly for 10 min before it was read on the Envision microplate reader.
The antiproliferative activity of the compounds of the present disclosure for MV-4-11 cells was determined through the above test, and the cell growth inhibition rate for each sample well was calculated based on the raw data.
(§1) Data analysis was performed by GraphPad Prism 9. The concentration-response curves were obtained using non-linear four-parameter fitting, and the IC50 for the compound was calculated: […]
A general note: ATP-based viability assays read luminescence as a measure of living cells.

The next assay concerns the target T2, human Cereblon WT (Homo sapiens, UniProt Q96SW2).
T2 construct: purchased
Briefly: Cereblon binding experiment (HTRF Human Cereblon Binding Kit, competition with XL665-labeled lenalidomide tracer). As to conditions: 3 h incubation at room temperature, 100% inhibition = 200 μM lenalidomide, read-out: IC50 (binding ability to Cereblon).
Description: The detection kit (HTRF Human Cereblon Binding Kits) used in the experiment was a detection method for the quantitative measurement of Cereblon WT ligands using HTRF® technology. The detection principle was based on HTRF technology, where the specifically labeled GST antibody (Euroum Cryptate, donor) simultaneously bound to the GST-labeled human Cereblon WT ligand and the XL665-labeled lenalidomide tracer (acceptor). The donor was excited by a light source to induce fluorescence resonance energy transfer (FRET) to the acceptor, and the acceptor emitted fluorescence at a specific wavelength of 665 nm. After the addition of a compound, the compound competed with the XL665-labeled lenalidomide to prevent FRET from occurring. […]
The compounds of the present disclosure were dissolved in DMSO at a stock concentration of 10 mM. […] The HTRF signal in each well was measured using an Envision plate reader. […]
The ratio of acceptor to donor emission signals was calculated for each well: […]
as §1
The binding ability of the compounds of the present disclosure to Cereblon was determined through the above test, and the measured IC50 values were shown in Table 1.
On the technique in general: Time-resolved FRET reads energy transfer from a long-lived donor to a nearby acceptor.

Setting [1] is: MV-4-11 cells, 6 h, Western blot.

Like-named read-outs stand apart in the source and are kept apart here.

What is called DC50 is the concentration giving 50% degradation. As a reminder, the IC50 is the point on the concentration scale where inhibition reaches its midpoint. `Cc1sc2c(c1C)C(c1ccc(Cl)cc1)=N[C@@H](CC(=O)NCCCCCC(=O)NCc1ccc3ccc4c(c3c1)n(C)c(=O)n4C1CCC(=O)NC1=O)c1nnc(C)n1-2` (stereo partly drawn) [Compound 2, 6-(2-((S)-4-(4-chlorophenyl)-2,3,9-trimethyl-6H-thieno[3,2-f][1,2,4]triazolo[4,3-a][1,4]diazepin-6-yl)acetamido)-N-((3-(2,6-dioxopiperidin-3-yl)-1-methyl-2-oxo-2,3-dihydro-1H-naphtho[1,2-d]imidazol-8-yl)methyl)hexanamide]: the Dmax at BRD4 (MV4-11, read-out: Maximum degradation rate (%) of BRD4 protein) worked out at 85.6%. Further, on BRD4 (setting [1]), the DC50 was 2.19 nM. Further, the IC50 in the assay with MV-4-11 cells was determined as 3.8 nM.
`Cn1c(=O)n(C2CCC(=O)NC2=O)c2ccc3c(c21)CNCC3` (centres unmarked) [Compound 8, 3-(1-methyl-2-oxo-1,2,6,7,8,9-hexahydro-3H-imidazo[4,5-h]isoquinolin-3-yl)piperidine-2,6-dione, reference compound]: at human Cereblon WT, the IC50 worked out at 8700 nM.
For `Cc1sc2c(c1C)C(c1ccc(Cl)cc1)=N[C@@H](CC(=O)NCCCCCC(=O)NCc1cccc3c1ccc1c3n(C)c(=O)n1C1CCC(=O)NC1=O)c1nnc(C)n1-2` (stereo partly drawn) [Compound 3, 6-(2-((S)-4-(4-Chlorophenyl)-2,3,9-trimethyl-6H-thieno[3,2-f][1,2,4]triazolo[4,3-a][1,4]diazepin-6-yl)acetamido)-N-((3-(2,6-dioxopiperidin-3-yl)-1-methyl-2-oxo-2,3-dihydro-1H-naphtho[1,2-d]imidazol-6-yl)methyl)hexanamide], the Dmax on BRD4 (MV4-11, MV-4-11 cells, 6 h, Western blot, read-out: Maximum degradation rate (%) of BRD4 protein) stood at 74.3%. Also, the DC50 at BRD4 (setting [1]) was determined as 11.2 nM. Also, in the assay on MV-4-11 cells (MV-4-11 cells, 3 days, CellTiter-Glo), the IC50 was found to be 14.1 nM.
On to `Cn1c(=O)n(C2CCC(=O)NC2=O)c2ccc3ccccc3c21` (centres unmarked) [Compound 1, 3-(1-methyl-2-oxo-1,2-dihydro-3H-naphtho[1,2-d]imidazol-3-yl)piperidine-2,6-dione], for which the IC50 at human Cereblon WT was found to be 188 nM.
